Key:
[1] = tested on: histamine-induced skin vascular permeability; experiment: Inhibitory effect on histamine-induced vascular permeability in mice; assay type: in vivo, ICR mice; conditions: Mus musculus, po; 5 mg/kg intragastric 1 hour before modeling; histamine phosphate 1 ug/0.1 mL; Evans Blue absorbance at 610 nm; read-out: Inhibition rate (%)
Method: Intragastric administration was performed 1 hour before modeling. The model group was given the corresponding solvent. […] 10% sodium sulfide was used to depilate the back of mice (3 cm×3 cm). The mice were injected 1 ug/0.1 mL of histamine phosphate physiological saline solution into the depilation site one hour after the administration, and injected 0.25% Evans Blue solution 4 ml/kg from the tail vein immediately after the injection. After 30 minutes, the mice were dislocated and sacrificed. The blue-stained part of the skin was removed and perforated (diameter 15 mm), cut into pieces and soaked in 1 ml of acetone-saline (7:3) solution. After 24 h, it was centrifuged (3000 r/min, 10 min) to take the supernatant. The absorbance of the sample was measured with an ultraviolet spectrophotometer at a wavelength of 610 nm and a blank zero calibration with acetone-physiological saline solution.

[2] = tested on: pilocarpine-induced saliva secretion; experiment: Pilocarpine-induced salivation in rats; conditions: 10 mg/kg intragastric; pilocarpine 1 mg/kg i.p. 15 minutes later; saliva collected 10 minutes
Method: Rats in each group were given corresponding drugs by intragastric administration. 15 minutes later, pilocarpine (1 mg/kg, dissolved in physiological saline) was injected intraperitoneally to induce saliva secretion. The rat was immediately anesthetized by intraperitoneal injection of 10% chloral hydrate. After the rat was anesthetized, the residual saliva in the oral cavity was taken out with a cotton ball in that the weighed cotton ball (M1) was placed in the oral cavity (two under the tongue and one for each on both sides). The cotton ball was taken out 10 minutes later and the weight of the cotton ball (M2) was immediately measured.
Inhibition rate=Saliva secretion in drug administration group/Saliva secretion in model group×100%

SMILES: CC(C)(C(=O)O)c1ccc(CCN2CCC(=C3c4ccc(Cl)cc4CCc4cccnc43)CC2)cc1 [Example 2, 2-(4-(2-(4-(4-(8-chloro-5,6-dihydro-11H-benzo[5,6]]cyclohept[1,2-b]pyridine-11-enyl)piperidin-1-yl)ethyl)phenyl)-2-methylpropionic acid]
- inhibition in vivo at 5 mg/kg [1]: 54%
- Inhibition rate (%) [2]: 7.64%

SMILES: COc1cc(C(C)(C)C(=O)O)ccc1CCCN1CCC(=C2c3ccc(Cl)cc3CCc3cccnc32)CC1 [Example 5, 2-(4-(3-(4-(8-chloro-5,6-dihydro-11H-benzo[5,6]cyclohepta[1,2-b]pyridine-11-enyl)piperidine-1-yl)propyl)-3-methoxyphenyl)-2-methylpropionic acid]
- inhibition in vivo at 5 mg/kg [1]: 47.9%
- Inhibition rate (%) [2]: 11.60%

SMILES: CC(C)(C(=O)O)c1ccc(CCCN2CCC(=C3c4ccc(Cl)cc4CCc4cccnc43)CC2)c(N)c1 [Example 6, 2-(3-Amino-4-(3-(4-(8-chloro-5,6-dihydro-11H-benzo[5,6]cyclohept[1,2-b]pyridine-11-enyl)piperidin-1-yl)propyl)phenyl)-2-methylpropionic acid]
- inhibition in vivo at 5 mg/kg [1]: 53.2%
- Inhibition rate (%) [2]: 6.34%

SMILES: CC(C)(C(=O)O)c1ccc(CCCN2CCC(=C3c4ccc(Cl)cc4CCc4cccnc43)CC2)cc1F [Example 9, 2-(4-(3-(4-(8-chloro-5,6-dihydro-11H-benzo[5,6]cyclohepta[1,2-b]pyridine-11-enyl)piperidine-1-yl)propyl)-2-fluorophenyl)-2-methylpropionic acid]
- inhibition in vivo at 5 mg/kg [1]: 50.6%
- Inhibition rate (%) [2]: 12.01%

SMILES: Cc1cc(C(C)(C)C(=O)O)ccc1CCCN1CCC(=C2c3ccc(Cl)cc3CCc3cccnc32)CC1 [Example 10, 2-(4-(3-(4-(8-chloro-5,6-dihydro-11H-benzo[5,6]cyclohepta[1,2-b]pyridine-11-enyl)piperidine-1-yl)propyl)-3-methylphenyl)-2-methylpropionic acid]
- inhibition in vivo at 5 mg/kg [1]: 41.2%
- Inhibition rate (%) [2]: 5.13%

SMILES: CC(C)(C(=O)O)c1ccc(CCCN2CCC(=C3c4ccc(Cl)cc4CCc4cccnc43)CC2)c(C(F)(F)F)c1 [Example 12]
- inhibition in vivo at 5 mg/kg [1]: 44.6%
- Inhibition rate (%) [2]: 7.48%

SMILES: CC(C)(C(=O)O)c1ccc(CCCN2CCC(=C3c4ccc(Cl)cc4CCc4cccnc43)CC2)cc1C(F)(F)F [Example 13]
- inhibition in vivo at 5 mg/kg [1]: 51%
- Inhibition rate (%) [2]: 5.77%

SMILES: CC(C)(C(=O)O)c1ccc(CCCN2CCC(=C3c4ccc(Cl)cc4CCc4cccnc43)CC2)c(Br)c1 [Example 14, 2-(3-Bromo-4-(3-(4-(8-chloro-5,6-dihydro-11H-benzo[5,6]cyclohept[1,2-b]pyridine-11-enyl)piperidin-1-yl)propyl)phenyl)-2-methylpropionic acid]
- inhibition in vivo at 5 mg/kg [1]: 42.8%
- Inhibition rate (%) [2]: 3.78%

SMILES: CC(C)(C(=O)O)c1ccc(CCCN2CCC(=C3c4ccc(Cl)cc4CCc4cccnc43)CC2)c(Cl)c1 [Example 15, 2-(3-chloro-4-(3-(4-(8-chloro-5,6-dihydro-11H-benzo[5,6]cyclohept[1,2-b]pyridine-11-enyl)piperidin-1-yl)propyl)phenyl)-2-methylpropionic acid]
- inhibition in vivo at 5 mg/kg [1]: 52.8%
- Inhibition rate (%) [2]: 8.42%

SMILES: CC(C)(C(=O)O)c1ccc(CCCN2CCC(=C3c4ccc(Cl)cc4CCc4cccnc43)CC2)c([N+](=O)[O-])c1 [Example 16, 2-(4-(3-(4-(8-chloro-5,6-dihydro-11H-benzo[5,6]cyclohepta[1,2-b]pyridine-11-enyl)piperidine-1-yl)propyl)-2-nitrophenyl)-2-methylpropionic acid]
- inhibition in vivo at 5 mg/kg [1]: 50.8%
- Inhibition rate (%) [2]: 10.76%

SMILES: CC(C)(C(=O)O)c1ccc(CCCN2CCC(=C3c4ccc(Cl)cc4CCc4cccnc43)CC2)cc1[N+](=O)[O-] [Example 17, 2-(4-(3-(4-(8-chloro-5,6-dihydro-11H-benzo[5,6]cyclohepta[1,2-b]pyridine-11-enyl)piperidine-1-yl)propyl)-3-nitrophenyl)-2-methylpropionic acid]
- inhibition in vivo at 5 mg/kg [1]: 49.2%
- Inhibition rate (%) [2]: 6.54%

— patent US20230140276A1, “TRICYCLIC COMPOUNDS, PREPARATION METHOD AND MEDICAL USE THEREOF” (HEFEI INSTITUTE OF PHARMACEUTICAL INDUSTRY CO., LTD., priority 2020, published 2023)
